Experimental data published in the supplement of paper PMC10307832.

Columns and labels:
Assay in all cases: relative viability (nuclei count vs DMSO), 5 days (fraction); higher = more cells survive
BI-D1870 + Foretinib = compound: CC(C)CCN1c2nc(Nc3cc(F)c(O)c(F)c3)ncc2N(C)C(=O)C1C [BI-D1870] + COc1cc2c(Oc3ccc(NC(=O)C4(C(=O)Nc5ccc(F)cc5)CC4)cc3F)ccnc2cc1OCCCN1CCOCC1 [Foretinib] (partner 0.25 µM)
How it was run: (§1)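 Lung cancer cell lines, seeded in 1536-well plates, were treated the following day by pin tool with a single drug or with five library-drug doses (not always all listed) in √10 steps on top of a fixed anchor-drug dose. Cells were fixed and nuclei stained in one step after 5 days, and nuclei were counted. Relative viability is the nuclei count for treated wells divided by that for vehicle wells, reported as medians of duplicate plates.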

BI-D1870 + Crizotinib = compound: CC(C)CCN1c2nc(Nc3cc(F)c(O)c(F)c3)ncc2N(C)C(=O)C1C [BI-D1870] + C[C@@H](Oc1cc(-c2cnn(C3CCNCC3)c2)cnc1N)c1c(Cl)ccc(F)c1Cl [Crizotinib] (partner 1 µM)
How it was run: as §1

BI-D1870 + Linsitinib = compound: CC(C)CCN1c2nc(Nc3cc(F)c(O)c(F)c3)ncc2N(C)C(=O)C1C [BI-D1870] + C[C@]1(O)C[C@@H](c2nc(-c3ccc4ccc(-c5ccccc5)nc4c3)c3c(N)nccn32)C1 [Linsitinib] (partner 1 µM)
How it was run: as §1

Zebularine + Pictilisib = compound: O=c1ncccn1[C@@H]1O[C@H](CO)[C@@H](O)[C@H]1O [Zebularine] + CS(=O)(=O)N1CCN(Cc2cc3nc(-c4cccc5[nH]ncc45)nc(N4CCOCC4)c3s2)CC1 [Pictilisib] (partner 1 µM)
How it was run: as §1

| Cell Line | relative viability (BI-D1870 + Foretinib; first compound 0.04 µM) | relative viability (BI-D1870 + Foretinib; first compound 0.1265 µM) | relative viability (BI-D1870 + Foretinib; first compound 0.4 µM) | relative viability (BI-D1870 + Foretinib; first compound 1.265 µM) | relative viability (BI-D1870 + Foretinib; first compound 4 µM) | relative viability (BI-D1870 + Crizotinib; first compound 0.04 µM) | relative viability (BI-D1870 + Crizotinib; first compound 0.1265 µM) | relative viability (BI-D1870 + Crizotinib; first compound 0.4 µM) | relative viability (BI-D1870 + Crizotinib; first compound 1.265 µM) | relative viability (BI-D1870 + Crizotinib; first compound 4 µM) | relative viability (BI-D1870 + Linsitinib; first compound 0.04 µM) | relative viability (BI-D1870 + Linsitinib; first compound 0.1265 µM) | relative viability (BI-D1870 + Linsitinib; first compound 0.4 µM) | relative viability (BI-D1870 + Linsitinib; first compound 1.265 µM) | relative viability (BI-D1870 + Linsitinib; first compound 4 µM) | relative viability (Zebularine + Pictilisib; first compound 1 µM) | relative viability (Zebularine + Pictilisib; first compound 3.162 µM) | relative viability (Zebularine + Pictilisib; first compound 10 µM) | relative viability (Zebularine + Pictilisib; first compound 31.62 µM) | relative viability (Zebularine + Pictilisib; first compound 100 µM) |
| --- | --- | --- | --- | --- | --- | --- | --- | --- | --- | --- | --- | --- | --- | --- | --- | --- | --- | --- | --- | --- |
| HCC-366 | 0.957 | 0.906 | 0.932 | 0.896 | 0.943 | 0.694 | 0.485 | 0.471 | 0.933 | 0.378 | 0.919 | 0.538 | 0.53 | 0.763 | 0.623 | 0.16 | 0.133 | 0.119 | 0.177 | 0.124 |
| NCI-H1623 | 0.913 | 0.843 | 0.801 | 0.903 | 0.794 | – | – | – | – | – | – | – | – | – | – | – | – | – | – | – |
| NCI-H1650 | 1.31 | 0.756 | 1.08 | 1.18 | 1.27 | 0.984 | 0.905 | 0.936 | 0.777 | 0.801 | – | – | – | – | – | 0.72 | 0.447 | – | 0.839 | 0.488 |
| NCI-H2170 | 1.06 | 0.971 | 1.05 | 0.934 | 0.957 | 1.31 | 1.06 | 1.24 | 1.24 | 1.06 | – | – | – | – | – | 0.385 | 0.31 | 0.348 | 0.322 | 0.243 |
| NCI-H1792 | – | – | – | – | – | 1.06 | 0.994 | 0.908 | 1.13 | 0.858 | 0.622 | 0.607 | 0.47 | 0.619 | 0.387 | 0.288 | 0.267 | 0.343 | 0.184 | 0.158 |
| ChaGo-K-1 | 1.01 | 0.85 | 0.857 | 1.04 | 0.956 | 1.19 | 1.09 | 1.08 | 1.06 | 0.994 | – | – | – | – | – | 0.896 | 0.557 | 0.466 | 0.447 | 0.27 |
| HCC-44 | – | – | – | – | – | 0.921 | 0.798 | 0.771 | 0.851 | 0.829 | 0.718 | 0.667 | 0.679 | 0.712 | 0.634 | 0.535 | 0.648 | 0.375 | 0.625 | 0.323 |
| NCI-H1793 | 0.72 | 0.561 | 0.63 | 0.737 | 0.943 | – | – | – | – | – | 0.824 | 0.578 | 0.794 | 0.84 | 0.932 | 0.472 | 0.372 | 0.205 | 0.269 | 0.267 |
| NCI-H1395 | 1.03 | 0.92 | 0.964 | 1.05 | 0.981 | – | – | – | – | – | 1.11 | 0.922 | 1.14 | 1.2 | 0.85 | 0.681 | 0.568 | 0.493 | 0.606 | 0.42 |
| SW 900 | 0.855 | 0.949 | 0.893 | 0.751 | 1.22 | – | – | – | – | – | – | – | – | – | – | – | – | – | – | – |
